System: 922993-354-T-J3-PDC complex spheroid viability
Test: Anticancer human tumor 922993-354-T-J3-PDC patient-derived endometrial carcinoma cell line growth inhibition [POLQ]
Conditions: for IC50: curve of first compound; for viability, T/C: stronger effect = lower value
Outline: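 Patient-derived tumour cells were co-cultured with HUVEC and mesenchymal stem cells as multicellular spheroids at 37 °C. They were treated with POLQ inhibitors (novobiocin, ART-558, RP6685) alone or combined with other agents. Top concentrations were at or near clinical Cmax (otherwise 10 microM; SN-38 at 1 microM), decreasing in half-log steps.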

[1] = second compound 0.0316 µM, first compound 0.0316 µM
[2] = second compound 0.0316 µM, first compound 0.1 µM
[3] = second compound 0.0316 µM, first compound 0.316 µM
[4] = second compound 0.0316 µM, first compound 1 µM
[5] = second compound 0.0316 µM, first compound 3.16 µM
[6] = second compound 0.0316 µM, first compound 10 µM
[7] = second compound 0.1 µM, first compound 0.0316 µM
[8] = second compound 0.1 µM, first compound 0.1 µM
[9] = second compound 0.1 µM, first compound 0.316 µM
[10] = second compound 0.1 µM, first compound 1 µM
[11] = second compound 0.1 µM, first compound 3.16 µM
[12] = second compound 0.1 µM, first compound 10 µM
[13] = second compound 0.316 µM, first compound 0.0316 µM
[14] = second compound 0.316 µM, first compound 0.1 µM
[15] = second compound 0.316 µM, first compound 0.316 µM
[16] = second compound 0.316 µM, first compound 1 µM
[17] = second compound 0.316 µM, first compound 3.16 µM
[18] = second compound 0.316 µM, first compound 10 µM
[19] = second compound 1 µM, first compound 0.0316 µM
[20] = second compound 1 µM, first compound 0.1 µM
[21] = second compound 1 µM, first compound 0.316 µM
[22] = second compound 1 µM, first compound 1 µM
[23] = second compound 1 µM, first compound 3.16 µM
[24] = second compound 1 µM, first compound 10 µM
[25] = second compound 3.16 µM, first compound 0.0316 µM
[26] = second compound 3.16 µM, first compound 0.1 µM
[27] = second compound 3.16 µM, first compound 0.316 µM
[28] = second compound 3.16 µM, first compound 1 µM
[29] = second compound 3.16 µM, first compound 3.16 µM
[30] = second compound 3.16 µM, first compound 10 µM
[31] = second compound 10 µM, first compound 0.0316 µM
[32] = second compound 10 µM, first compound 0.1 µM
[33] = second compound 10 µM, first compound 0.316 µM
[34] = second compound 10 µM, first compound 1 µM
[35] = second compound 10 µM, first compound 3.16 µM
[36] = second compound 10 µM, first compound 10 µM
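Note: spheroids exposed to the agents for one week.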
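Throughout, for viability, T/C: 100% = DMSO vehicle control wells.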

`C=CC(=O)N1CCN(c2nc(=O)n(-c3c(C)ccnc3C(C)C)c3nc(-c4c(O)cccc4F)c(F)cc23)C(C)C1` (centres undefined) + COC1C(OC(N)=O)C(O)C(Oc2ccc3c(O)c(NC(=O)c4ccc(O)c(CC=C(C)C)c4)c(=O)oc3c2C)OC1(C)C was tested, and the IC50 (second compound 0.0316 µM) was > 10 µM, the IC50 (second compound 0.1 µM) was > 10 µM and the IC50 (second compound 0.316 µM) was > 10 µM. The IC50 (second compound 1 µM) was > 10 µM, the IC50 (second compound 3.16 µM) was > 10 µM and the IC50 (second compound 10 µM) was > 10 µM. For the same compound, the viability, T/C [1] was 102%, the viability, T/C [2] was 94.8% and the viability, T/C [3] was 98.9%. For the same compound, the viability, T/C [4] was 101%, the viability, T/C [5] was 92.8% and the viability, T/C [6] was 84.1%. It also gave a viability, T/C [7] of 98.9%, a viability, T/C [8] of 107% and a viability, T/C [9] of 93.3%. For the same compound, the viability, T/C [10] was 91.4%, the viability, T/C [11] was 88.3% and the viability, T/C [12] was 97.6%. The viability, T/C [13] was 102%, the viability, T/C [14] was 101% and the viability, T/C [15] was 103%. For the same compound, the viability, T/C [16] was 96.5%, the viability, T/C [17] was 96.2% and the viability, T/C [18] was 99.6%. For the same compound, the viability, T/C [19] was 101%, the viability, T/C [20] was 97.5% and the viability, T/C [21] was 97.4%. It also gave a viability, T/C [22] of 98.6%, a viability, T/C [23] of 93% and a viability, T/C [24] of 104%. It also gave a viability, T/C [25] of 102%, a viability, T/C [26] of 94.2% and a viability, T/C [27] of 95.9%. For the same compound, the viability, T/C [28] was 92%, the viability, T/C [29] was 97.4% and the viability, T/C [30] was 101%. It also gave a viability, T/C [31] of 85.8%, a viability, T/C [32] of 88.4% and a viability, T/C [33] of 89.8%. The viability, T/C [34] was 85.9%, the viability, T/C [35] was 88.3% and the viability, T/C [36] was 85%.
For `CC(C)n1c(=O)n(C)c2cnc3cc(F)c(-c4ccc(OCCCN5CCCCC5)nc4)cc3c21` + COC1C(OC(N)=O)C(O)C(Oc2ccc3c(O)c(NC(=O)c4ccc(O)c(CC=C(C)C)c4)c(=O)oc3c2C)OC1(C)C, the IC50 (second compound 0.0316 µM) was > 10 µM, the IC50 (second compound 0.1 µM) was > 10 µM and the IC50 (second compound 0.316 µM) was > 10 µM. For the same compound, the IC50 (second compound 1 µM) was > 10 µM, the IC50 (second compound 3.16 µM) was > 10 µM and the IC50 (second compound 10 µM) was > 10 µM. For the same compound, the viability, T/C [1] was 111%, the viability, T/C [2] was 90.8% and the viability, T/C [3] was 104%. For the same compound, the viability, T/C [4] was 94.8%, the viability, T/C [5] was 84.2% and the viability, T/C [6] was 59%. It also gave a viability, T/C [7] of 103%, a viability, T/C [8] of 97.2% and a viability, T/C [9] of 104%. It also gave a viability, T/C [10] of 91.9%, a viability, T/C [11] of 83.3% and a viability, T/C [12] of 63.7%. It also gave a viability, T/C [13] of 99.2%, a viability, T/C [14] of 104% and a viability, T/C [15] of 94.1%. For the same compound, the viability, T/C [16] was 93.5%, the viability, T/C [17] was 84.3% and the viability, T/C [18] was 66.5%. The viability, T/C [19] was 88.9%, the viability, T/C [20] was 98.3% and the viability, T/C [21] was 100%. For the same compound, the viability, T/C [22] was 91.9%, the viability, T/C [23] was 86.9% and the viability, T/C [24] was 70.3%. For the same compound, the viability, T/C [25] was 95.9%, the viability, T/C [26] was 104% and the viability, T/C [27] was 85.5%. For the same compound, the viability, T/C [28] was 86.2%, the viability, T/C [29] was 85.1% and the viability, T/C [30] was 56.7%. For the same compound, the viability, T/C [31] was 81%, the viability, T/C [32] was 77.1% and the viability, T/C [33] was 89.6%. The viability, T/C [34] was 74.1%, the viability, T/C [35] was 70.2% and the viability, T/C [36] was 63%.

— PubChem BioAssay AID1963830 (Molecular Pharmacology Branch, DTP, NCI, 2024)
